Like-named read-outs stand apart in the source and are kept apart here.
What was measured:
Type in all cases: cell-based
[1] = biological target: protein kinases (human kinome) (Homo sapiens, UniProt O00764); conditions: protein PDXK (O00764-1); experiment wp117; down
[2] = biological target: protein kinases (human kinome) (Homo sapiens, UniProt Q8N5S9); conditions: experiment wp117
[3] = biological target: protein kinases (human kinome) (Homo sapiens, UniProt Q15759); conditions: for logFC MAPK11 (Q15759): direction of change down; for logFC: MAPK11 (Q15759)
[4] = biological target: protein kinases (human kinome) (Homo sapiens, UniProt A2RU49); conditions: protein HYKK (A2RU49); experiment wp117; down
[5] = biological target: protein kinases (human kinome) (Homo sapiens, UniProt Q9P2K8); conditions: experiment wp080
[6] = biological target: T1, protein kinases (human kinome) (Homo sapiens, UniProt O43318); conditions: MAP3K7 (O43318)
T1 sequence (O43318 1-606): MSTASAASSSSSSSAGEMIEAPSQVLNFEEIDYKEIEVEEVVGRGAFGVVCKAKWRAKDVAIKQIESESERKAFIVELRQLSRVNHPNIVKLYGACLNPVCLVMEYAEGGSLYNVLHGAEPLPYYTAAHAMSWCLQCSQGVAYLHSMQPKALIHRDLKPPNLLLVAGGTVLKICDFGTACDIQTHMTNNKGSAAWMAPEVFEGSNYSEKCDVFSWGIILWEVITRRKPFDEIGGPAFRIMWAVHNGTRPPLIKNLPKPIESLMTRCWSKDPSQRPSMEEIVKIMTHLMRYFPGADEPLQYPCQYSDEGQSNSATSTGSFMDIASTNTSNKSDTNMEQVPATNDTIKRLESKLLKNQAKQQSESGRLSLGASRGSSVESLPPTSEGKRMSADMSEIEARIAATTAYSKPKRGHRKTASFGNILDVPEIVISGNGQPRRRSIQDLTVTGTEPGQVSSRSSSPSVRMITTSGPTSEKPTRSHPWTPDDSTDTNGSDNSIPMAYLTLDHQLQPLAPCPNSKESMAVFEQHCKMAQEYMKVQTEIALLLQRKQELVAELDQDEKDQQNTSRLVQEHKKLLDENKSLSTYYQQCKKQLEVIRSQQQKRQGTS

[7] = biological target: protein kinases (human kinome) (Homo sapiens, UniProt P29317); conditions: for logFC: EPHA2 (P29317)
[8] = biological target: protein kinases (human kinome) (Homo sapiens, UniProt Q6JQN1); conditions: ACAD10 (Q6JQN1); experiment wp056
[9] = biological target: protein kinases (human kinome) (Homo sapiens, UniProt O60307); conditions: experiment wp107
[10] = biological target: protein kinases (human kinome) (Homo sapiens, UniProt Q86Z02); conditions: experiment wp133, 4 hr
[11] = biological target: protein kinases (human kinome) (Homo sapiens, UniProt Q96DU7); conditions: protein ITPKC (Q96DU7); experiment wp133, 4 hr; down
[12] = biological target: T2, protein kinases (human kinome) (Homo sapiens, UniProt Q13043); conditions: for logFC: STK4 (Q13043-1)
T2 sequence (Q13043 1-487): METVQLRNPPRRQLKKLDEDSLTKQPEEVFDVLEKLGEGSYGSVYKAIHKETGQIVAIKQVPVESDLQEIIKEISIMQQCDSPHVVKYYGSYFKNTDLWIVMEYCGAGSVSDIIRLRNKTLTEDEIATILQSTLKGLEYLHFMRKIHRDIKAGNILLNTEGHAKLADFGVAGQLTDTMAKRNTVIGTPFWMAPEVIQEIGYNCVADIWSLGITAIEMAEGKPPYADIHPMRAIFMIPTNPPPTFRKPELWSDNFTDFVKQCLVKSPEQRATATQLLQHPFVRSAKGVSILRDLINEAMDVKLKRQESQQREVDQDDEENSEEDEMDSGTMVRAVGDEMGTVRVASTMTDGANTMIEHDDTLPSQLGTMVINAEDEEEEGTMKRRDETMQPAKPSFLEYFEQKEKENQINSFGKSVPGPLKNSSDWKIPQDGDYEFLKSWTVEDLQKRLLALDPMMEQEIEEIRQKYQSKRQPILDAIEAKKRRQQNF

Sequence of protein kinases (human kinome) (Homo sapiens, UniProt P29317) (P29317 24-976): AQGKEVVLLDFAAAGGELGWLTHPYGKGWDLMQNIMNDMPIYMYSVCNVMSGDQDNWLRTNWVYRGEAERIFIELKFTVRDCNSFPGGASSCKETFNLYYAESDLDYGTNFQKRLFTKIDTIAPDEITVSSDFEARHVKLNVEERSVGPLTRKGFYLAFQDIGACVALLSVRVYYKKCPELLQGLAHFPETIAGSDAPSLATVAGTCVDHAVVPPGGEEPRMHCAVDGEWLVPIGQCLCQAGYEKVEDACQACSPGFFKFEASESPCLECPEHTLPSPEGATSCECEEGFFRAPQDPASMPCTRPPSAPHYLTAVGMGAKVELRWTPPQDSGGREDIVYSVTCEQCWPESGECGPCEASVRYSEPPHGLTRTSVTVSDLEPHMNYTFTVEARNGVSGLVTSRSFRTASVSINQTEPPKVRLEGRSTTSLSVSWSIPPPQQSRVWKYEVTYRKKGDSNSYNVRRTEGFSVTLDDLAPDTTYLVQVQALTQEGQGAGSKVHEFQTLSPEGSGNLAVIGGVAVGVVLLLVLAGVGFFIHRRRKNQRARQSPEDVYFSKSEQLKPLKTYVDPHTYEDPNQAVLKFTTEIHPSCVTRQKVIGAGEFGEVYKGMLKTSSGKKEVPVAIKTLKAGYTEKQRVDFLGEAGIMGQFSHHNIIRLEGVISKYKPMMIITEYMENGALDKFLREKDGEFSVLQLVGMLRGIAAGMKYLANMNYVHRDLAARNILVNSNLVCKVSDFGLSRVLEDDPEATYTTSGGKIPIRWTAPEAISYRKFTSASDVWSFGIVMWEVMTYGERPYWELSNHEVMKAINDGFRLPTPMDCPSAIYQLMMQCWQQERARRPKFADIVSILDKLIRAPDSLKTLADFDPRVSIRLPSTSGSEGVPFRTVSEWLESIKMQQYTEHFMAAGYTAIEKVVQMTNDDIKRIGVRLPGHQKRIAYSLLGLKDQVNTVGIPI
Sequence of protein kinases (human kinome) (Homo sapiens, UniProt Q15759) (Q15759 whole entry): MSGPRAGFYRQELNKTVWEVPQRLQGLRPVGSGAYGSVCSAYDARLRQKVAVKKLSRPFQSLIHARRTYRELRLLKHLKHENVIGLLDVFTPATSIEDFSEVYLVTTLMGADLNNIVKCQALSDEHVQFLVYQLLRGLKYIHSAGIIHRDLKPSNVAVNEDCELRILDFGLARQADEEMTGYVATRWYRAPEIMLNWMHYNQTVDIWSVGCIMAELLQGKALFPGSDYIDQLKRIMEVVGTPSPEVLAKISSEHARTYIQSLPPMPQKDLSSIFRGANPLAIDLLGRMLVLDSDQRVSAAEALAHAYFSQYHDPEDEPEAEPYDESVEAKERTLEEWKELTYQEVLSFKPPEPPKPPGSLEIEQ
Sequence of protein kinases (human kinome) (Homo sapiens, UniProt Q86Z02) (Q86Z02 whole entry): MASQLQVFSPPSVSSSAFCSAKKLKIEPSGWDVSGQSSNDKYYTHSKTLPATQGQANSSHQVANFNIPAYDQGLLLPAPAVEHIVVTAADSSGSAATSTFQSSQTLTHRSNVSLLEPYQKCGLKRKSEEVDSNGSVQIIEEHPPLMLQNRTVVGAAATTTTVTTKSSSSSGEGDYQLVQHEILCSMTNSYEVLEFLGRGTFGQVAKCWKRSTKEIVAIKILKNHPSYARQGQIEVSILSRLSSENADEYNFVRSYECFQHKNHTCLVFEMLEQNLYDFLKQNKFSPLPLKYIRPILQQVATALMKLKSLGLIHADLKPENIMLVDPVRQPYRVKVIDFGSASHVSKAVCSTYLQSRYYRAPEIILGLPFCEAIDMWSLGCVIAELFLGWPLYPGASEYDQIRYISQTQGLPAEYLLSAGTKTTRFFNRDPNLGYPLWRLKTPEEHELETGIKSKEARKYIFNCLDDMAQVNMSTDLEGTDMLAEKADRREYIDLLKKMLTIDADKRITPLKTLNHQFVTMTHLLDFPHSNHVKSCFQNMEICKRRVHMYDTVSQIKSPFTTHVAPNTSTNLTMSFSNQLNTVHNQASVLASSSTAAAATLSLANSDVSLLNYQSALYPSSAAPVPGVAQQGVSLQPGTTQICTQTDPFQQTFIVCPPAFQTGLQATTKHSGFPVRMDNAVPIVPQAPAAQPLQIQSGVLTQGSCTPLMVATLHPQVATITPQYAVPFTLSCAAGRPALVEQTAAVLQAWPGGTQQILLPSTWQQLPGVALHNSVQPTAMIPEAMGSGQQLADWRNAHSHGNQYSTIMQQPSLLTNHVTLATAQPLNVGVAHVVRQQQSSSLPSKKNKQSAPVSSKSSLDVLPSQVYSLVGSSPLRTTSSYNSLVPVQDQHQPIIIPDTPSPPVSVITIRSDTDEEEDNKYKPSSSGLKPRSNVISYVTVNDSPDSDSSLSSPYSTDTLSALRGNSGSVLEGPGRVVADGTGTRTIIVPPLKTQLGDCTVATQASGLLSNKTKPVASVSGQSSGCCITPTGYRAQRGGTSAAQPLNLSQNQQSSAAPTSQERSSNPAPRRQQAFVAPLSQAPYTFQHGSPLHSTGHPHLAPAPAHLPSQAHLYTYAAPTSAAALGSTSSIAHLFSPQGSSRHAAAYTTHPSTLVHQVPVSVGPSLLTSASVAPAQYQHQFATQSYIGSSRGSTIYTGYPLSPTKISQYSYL
Sequence of protein kinases (human kinome) (Homo sapiens, UniProt O60307) (O60307 whole entry): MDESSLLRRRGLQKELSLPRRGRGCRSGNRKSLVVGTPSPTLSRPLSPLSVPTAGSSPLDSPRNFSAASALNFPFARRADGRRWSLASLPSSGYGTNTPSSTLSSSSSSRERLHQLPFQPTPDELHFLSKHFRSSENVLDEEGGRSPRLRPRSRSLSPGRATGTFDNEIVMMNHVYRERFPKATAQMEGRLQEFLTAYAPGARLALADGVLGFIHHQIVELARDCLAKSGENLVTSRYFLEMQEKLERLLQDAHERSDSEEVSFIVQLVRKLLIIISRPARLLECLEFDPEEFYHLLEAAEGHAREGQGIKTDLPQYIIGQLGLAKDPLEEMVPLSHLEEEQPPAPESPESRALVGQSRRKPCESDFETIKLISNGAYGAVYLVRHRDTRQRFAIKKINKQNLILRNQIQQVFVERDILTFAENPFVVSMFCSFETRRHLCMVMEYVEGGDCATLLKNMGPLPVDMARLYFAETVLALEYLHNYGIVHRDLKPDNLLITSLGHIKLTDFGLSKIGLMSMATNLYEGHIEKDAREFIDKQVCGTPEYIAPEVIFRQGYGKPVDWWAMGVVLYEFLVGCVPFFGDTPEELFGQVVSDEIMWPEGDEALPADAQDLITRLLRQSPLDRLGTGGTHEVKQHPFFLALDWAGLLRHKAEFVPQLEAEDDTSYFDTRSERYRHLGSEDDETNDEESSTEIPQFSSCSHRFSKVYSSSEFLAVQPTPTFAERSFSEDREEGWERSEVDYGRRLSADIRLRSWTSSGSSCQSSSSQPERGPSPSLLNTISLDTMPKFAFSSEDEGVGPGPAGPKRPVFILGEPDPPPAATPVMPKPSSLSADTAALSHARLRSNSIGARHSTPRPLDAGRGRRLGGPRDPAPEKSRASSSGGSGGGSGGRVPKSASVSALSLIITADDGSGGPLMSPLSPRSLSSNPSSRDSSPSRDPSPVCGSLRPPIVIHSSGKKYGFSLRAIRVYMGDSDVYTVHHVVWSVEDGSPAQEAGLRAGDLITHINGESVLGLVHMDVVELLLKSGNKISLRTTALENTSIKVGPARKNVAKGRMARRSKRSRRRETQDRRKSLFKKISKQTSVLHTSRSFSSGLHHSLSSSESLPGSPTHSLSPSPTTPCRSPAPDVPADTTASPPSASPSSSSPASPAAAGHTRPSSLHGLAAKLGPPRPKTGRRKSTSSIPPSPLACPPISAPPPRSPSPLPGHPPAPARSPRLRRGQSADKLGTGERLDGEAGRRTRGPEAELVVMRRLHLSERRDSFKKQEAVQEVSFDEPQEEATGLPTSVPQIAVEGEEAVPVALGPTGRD
Sequence of protein kinases (human kinome) (Homo sapiens, UniProt Q8N5S9) (Q8N5S9 whole entry): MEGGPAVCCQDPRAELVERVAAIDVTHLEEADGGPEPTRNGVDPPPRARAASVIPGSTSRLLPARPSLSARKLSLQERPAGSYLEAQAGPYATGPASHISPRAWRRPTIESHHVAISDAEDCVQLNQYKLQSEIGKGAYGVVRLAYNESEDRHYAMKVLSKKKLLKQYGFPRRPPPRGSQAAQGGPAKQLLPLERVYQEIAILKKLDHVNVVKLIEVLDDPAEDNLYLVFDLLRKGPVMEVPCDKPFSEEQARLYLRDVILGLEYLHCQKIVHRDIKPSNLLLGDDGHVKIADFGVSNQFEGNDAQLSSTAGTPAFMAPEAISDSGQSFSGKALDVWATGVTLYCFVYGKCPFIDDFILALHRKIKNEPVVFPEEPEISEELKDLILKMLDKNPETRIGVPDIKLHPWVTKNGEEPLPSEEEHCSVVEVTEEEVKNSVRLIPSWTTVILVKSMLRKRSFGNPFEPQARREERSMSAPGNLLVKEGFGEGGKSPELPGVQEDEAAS
Sequence of protein kinases (human kinome) (Homo sapiens, UniProt Q96DU7) (Q96DU7 whole entry): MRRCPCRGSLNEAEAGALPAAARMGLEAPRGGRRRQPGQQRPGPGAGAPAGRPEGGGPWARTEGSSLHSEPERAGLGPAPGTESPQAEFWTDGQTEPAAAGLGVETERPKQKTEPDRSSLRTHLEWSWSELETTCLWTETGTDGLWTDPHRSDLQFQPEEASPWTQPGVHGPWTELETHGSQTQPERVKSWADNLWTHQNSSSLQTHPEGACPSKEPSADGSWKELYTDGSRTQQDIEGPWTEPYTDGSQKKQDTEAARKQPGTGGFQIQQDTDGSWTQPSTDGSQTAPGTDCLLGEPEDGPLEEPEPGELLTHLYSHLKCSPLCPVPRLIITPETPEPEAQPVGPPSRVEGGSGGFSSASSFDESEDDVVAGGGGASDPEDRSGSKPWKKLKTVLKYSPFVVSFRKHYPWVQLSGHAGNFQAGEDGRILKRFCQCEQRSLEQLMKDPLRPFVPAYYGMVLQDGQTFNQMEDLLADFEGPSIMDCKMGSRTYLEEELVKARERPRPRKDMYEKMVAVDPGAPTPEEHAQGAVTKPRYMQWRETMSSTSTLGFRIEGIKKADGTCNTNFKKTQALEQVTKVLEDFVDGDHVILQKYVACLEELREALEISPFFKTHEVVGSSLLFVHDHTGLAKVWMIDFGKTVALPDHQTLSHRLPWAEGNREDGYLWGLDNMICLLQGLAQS

Compound: CS(=O)(=O)Nc1cccc(-c2csc3cnc(Nc4ccc(N5CCN(CCCCCOc6cccc7c6C(=O)N(C6CCC(=O)NC6=O)C7=O)CC5)cc4)nc23)c1 (centres unmarked) [DB0614, N-(3-(2-((4-(4-(5-((2-(2,6-Dioxopiperidin-3-yl)-1,3-dioxoisoindolin-4-yl)oxy)pentyl)piperazin-1-yl)phenyl)amino)thieno[3,2-d]pyrimidin-7-yl)phenyl)methanesulfonamide]
- logFC PDXK [1]: −0.3964
- logFC ([2]; CAMKK1 (Q8N5S9)): −0.471
- logFC CAMKK1 (Q8N5S9) ([2]; direction of change down): −0.471

Compound: Cc1ccc(NC(=O)c2cccc(C(F)(F)F)c2)cc1N1Cc2cnc(Nc3ccc(N4CCN(Cc5cn(CCCCCOc6cccc7c6C(=O)N(C6CCC(=O)NC6=O)C7=O)nn5)CC4)nc3)nc2N(C)C1=O (centres unmarked) [DB0646, N-(3-(7-((6-(4-((1-(5-((2-(2,6-Dioxopiperidin-3-yl)-1,3-dioxoisoindolin-4-yl)oxy)pentyl)-1H-1,2,3-triazol-4-yl)methyl)piperazin-1-v)pyridin-3-yl)amino)-1-methyl-2-oxo-1,4-dihydropyrimido[4,5-d]pyrimidin-3(2H)-yl)-4-methylphenyl)-3-(trifluoromethyl)benzamide]
- logFC MAPK11 (Q15759) ([3]; Experiment wp105): −0.3998
- logFC MAPK11 (Q15759) ([3]; Experiment wp114): −0.6209
- logFC ([3]; experiment wp105): −0.3998
- logFC ([3]; experiment wp114): −0.6209

Compound: Cc1ncsc1-c1ccc([C@H](C)NC(=O)[C@@H]2C[C@@H](O)CN2C(=O)[C@@H](NC(=O)CCCCCN2CCN(c3ccc(Nc4ncc5scc(-c6cccc(NS(C)(=O)=O)c6)c5n4)cc3)CC2)C(C)(C)C)cc1 [RSS0680, (2S,4R)-1-((S)-3,3-Dimethyl-2-(6-(4-(4-((7-(3-(methylsulfonamido)phenyl)thieno[3,2-d]pyrimidin-2-yl)amino)phenyl)piperazin-1-yl)hexanamido)butanoyl)-4-hydroxy-N—((S)-1-(4-(4-methylthiazol-5yl)phenyl)ethyl)pyrrolidine-2-carboxamide]
- logFC HYKK [4]: −0.3476
- logFC EIF2AK4 (Q9P2K8-1) ([5]; direction of change down): −0.3311
- logFC EIF2AK4 ([5]; protein EIF2AK4 (Q9P2K8-1), down): −0.3311

Compound: Cc1ccc(C(=O)Nc2ccc(CN3CCN(CCCOCCOCCOCCNC(=O)COc4cccc5c4C(=O)N(C4CCC(=O)NC4=O)C5=O)CC3)c(C(F)(F)F)c2)cc1C#Cc1cnc2cccnn12 (centres unmarked) [SB1.G.187]
- logFC ([6]; experiment wp056): −1.003
- logFC ([6]; experiment wp056, direction down): −1.003
- logFC ([6]; experiment wp103): −1.374
- logFC ([6]; experiment wp103, direction down): −1.374
- logFC ([6]; experiment wp105): −1.031
- logFC ([6]; experiment wp105, direction down): −1.031
- logFC ([6]; experiment wp107): −1.33
- logFC ([6]; experiment wp107, direction down): −1.33
- logFC ([6]; experiment wp172): −0.5772
- logFC ([6]; experiment wp172, direction down): −0.5772
- logFC ([7]; experiment wp114): −0.401
- logFC ([7]; experiment wp172): −0.4107
- logFC of EPHA2 (P29317) ([7]; Experiment wp114): −0.401
- logFC of EPHA2 (P29317) ([7]; Experiment wp172): −0.4107
- logFC [8]: −0.3838

Compound: CC(C)S(=O)(=O)c1ccccc1Nc1nc(Nc2ccc(N3CCN(CCOCCNC(=O)CNc4cccc5c4C(=O)N(C4CCC(=O)NC4=O)C5=O)CC3)cc2)ncc1Cl (centres unmarked) [SK.3.91]
- logFC MAST3 (O60307) ([9]; direction of change down): −0.4984
- logFC MAST3 ([9]; protein MAST3 (O60307), down): −0.4984
- logFC HIPK1 (Q86Z02) ([10]; direction of change down): −0.4009
- logFC HIPK1 ([10]; protein HIPK1 (Q86Z02), down): −0.4009
- logFC ITPKC [11]: −0.3556

Compound: Nc1ncc(-c2ccc(S(=O)(=O)N(CCCNC(=O)CCOCCOCCOCCOCCOCCNc3cccc4c3C(=O)N(C3CCC(=O)NC3=O)C4=O)C3CC3)cc2)cc1-c1ccc2c(c1)CCNC2=O (centres unmarked) [WH.10417.099]
- logFC of STK4 (Q13043-1) ([12]; Experiment wp103): −0.7387
- logFC of STK4 (Q13043-1) ([12]; Experiment wp107): −0.7188
- logFC of STK4 (Q13043-1) ([12]; Experiment wp172): −0.5983
- logFC ([12]; experiment wp056): −0.7157
- logFC ([12]; experiment wp103): −0.7387
- logFC ([12]; experiment wp107): −0.7188
- logFC ([12]; experiment wp172): −0.5983
- logFC of STK4 (Q13043-1) ([12]; experiment wp056): −0.7157

Reference: patent publication US20240269139A1, “COMPOUNDS FOR TARGETED PROTEIN DEGRADATION OF KINASES” (DANA-FARBER CANCER INSTITUTE, INC., priority 2020, published 2024)
